This passage reports IC50 and Ratio IC50 results from ChEMBL document CHEMBL4390687, “Dispiropyrrolidinyl-piperidone embedded indeno[1,2-b]quinoxaline heterocyclic hybrids: Synthesis, cholinesterase inhibitory activity and their molecular docking simulation” (Bioorg Med Chem, 2019).

One test deals with Cholinesterase (Equus caballus, UniProt P81908). The experiment in a line: Inhibition of equine serum BChE using butyrylthiocholine chloride as substrate preincubated for 15 mins followed by substrate addition and measured after 30 mins by Ellman's method.
Another test concerns the target Acetylcholinesterase (Electrophorus electricus, UniProt O42275). The experiment in a line: Inhibition of electric eel AChE using acetylthiocholine iodide as substrate preincubated for 15 mins followed by substrate addition and measured after 30 mins by Ellman's method. For orientation: DTNB colorimetry detects thiols as they appear.
Test [1] can be described thus: Selectivity index, ratio of IC50 for equine serum BChE to IC50 for electric eel AChE.
A short description of test [2]: Selectivity index, ratio of IC50 for electric eel AChE to IC50 for equine serum BChE.

Chain of Acetylcholinesterase (O42275 whole entry): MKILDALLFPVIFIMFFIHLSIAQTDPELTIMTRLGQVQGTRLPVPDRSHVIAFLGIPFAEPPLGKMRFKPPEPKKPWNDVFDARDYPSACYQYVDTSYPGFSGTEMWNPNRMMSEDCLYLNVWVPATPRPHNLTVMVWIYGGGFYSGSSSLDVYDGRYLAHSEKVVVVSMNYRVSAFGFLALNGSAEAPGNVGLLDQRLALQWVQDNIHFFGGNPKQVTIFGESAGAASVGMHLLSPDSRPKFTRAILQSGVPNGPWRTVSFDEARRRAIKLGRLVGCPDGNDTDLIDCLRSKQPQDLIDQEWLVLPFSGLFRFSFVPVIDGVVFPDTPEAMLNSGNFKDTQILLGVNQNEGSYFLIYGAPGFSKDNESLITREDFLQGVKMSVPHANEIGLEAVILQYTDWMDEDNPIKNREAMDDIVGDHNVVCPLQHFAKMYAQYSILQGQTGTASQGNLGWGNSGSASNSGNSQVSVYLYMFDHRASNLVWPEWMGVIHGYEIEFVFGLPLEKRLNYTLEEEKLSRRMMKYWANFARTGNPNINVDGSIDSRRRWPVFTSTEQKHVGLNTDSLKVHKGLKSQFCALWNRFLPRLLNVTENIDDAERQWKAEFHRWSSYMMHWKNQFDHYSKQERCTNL
Chain of Cholinesterase (P81908 whole entry): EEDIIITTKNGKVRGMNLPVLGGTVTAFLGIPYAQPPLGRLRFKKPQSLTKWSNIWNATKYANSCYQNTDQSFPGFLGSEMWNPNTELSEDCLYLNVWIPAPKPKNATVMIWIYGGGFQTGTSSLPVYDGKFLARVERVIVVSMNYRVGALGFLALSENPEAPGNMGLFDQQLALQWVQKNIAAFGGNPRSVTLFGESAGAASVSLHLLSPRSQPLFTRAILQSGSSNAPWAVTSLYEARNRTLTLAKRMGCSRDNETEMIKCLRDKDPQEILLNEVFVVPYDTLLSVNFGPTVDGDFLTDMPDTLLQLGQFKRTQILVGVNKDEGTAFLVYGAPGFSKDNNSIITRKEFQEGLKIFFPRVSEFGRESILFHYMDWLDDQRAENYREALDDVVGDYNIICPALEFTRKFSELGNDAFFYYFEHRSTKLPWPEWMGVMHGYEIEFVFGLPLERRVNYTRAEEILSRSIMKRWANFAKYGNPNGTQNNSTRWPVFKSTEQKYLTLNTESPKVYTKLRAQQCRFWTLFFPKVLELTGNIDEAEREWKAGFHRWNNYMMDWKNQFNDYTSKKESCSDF

Take `O=C1/C(=C/c2cccc([N+](=O)[O-])c2)CNCC12C(c1cccc([N+](=O)[O-])c1)C(Cc1c[nH]c3ccccc13)NC21c2ccccc2C2N=c3ccccc3=NC21` (stereo not given): the IC50 against Cholinesterase is 10.5 µM; on Acetylcholinesterase, 2.01 µM. The Ratio IC50 in test [1] came out at 5.2; in test [2], 0.19.

With `O=C1/C(=C/c2ccccc2Cl)CNCC12C(c1ccccc1Cl)C(Cc1c[nH]c3ccccc13)NC21c2ccccc2C2N=c3ccccc3=NC21` (stereo not given), the IC50 at Cholinesterase stood at 26.7 µM; against Acetylcholinesterase, 16.4 µM. In addition, the values for the Ratio IC50 in test [1] and in test [2] were 1.63 and 0.62, respectively.

In the case of `Cc1ccccc1/C=C1\CNCC2(C1=O)C(c1ccccc1C)C(Cc1c[nH]c3ccccc13)NC21c2ccccc2C2N=c3ccccc3=NC21` (stereo not given), the half-inhibitory concentration (IC50) on Cholinesterase came out at 14.7 µM; at Acetylcholinesterase it was 5.8 µM. Also, the Ratio IC50 in test [1] is 2.54; in test [2] it was 0.39.

For `O=C1/C(=C/c2ccc(Cl)cc2Cl)CNCC12C(c1ccc(Cl)cc1Cl)C(Cc1c[nH]c3ccccc13)NC21c2ccccc2C2N=c3ccccc3=NC21` (stereo not given), the IC50 at Cholinesterase was 17.6 µM; at Acetylcholinesterase, 10.2 µM. Moreover, the Ratio IC50 in test [1] amounted to 1.73; in test [2], 0.58.

In the case of `O=C1/C(=C/c2ccccc2)CNCC12C(c1ccccc1)C(Cc1c[nH]c3ccccc13)NC21c2ccccc2C2N=c3ccccc3=NC21` (stereo not given), the IC50 at Cholinesterase came out at 14.2 µM; at Acetylcholinesterase, 7.35 µM. Moreover, the Ratio IC50 in test [1] was found to be 1.93; in test [2], 0.52.

On to `Cc1ccc(/C=C2\CNCC3(C2=O)C(c2ccc(C)cc2)C(Cc2c[nH]c4ccccc24)NC32c3ccccc3C3N=c4ccccc4=NC32)cc1` (stereo not given), for which the IC50 is 12.4 µM against Cholinesterase and 3.22 µM at Acetylcholinesterase. For the same compound, the Ratio IC50 in test [1] was 3.85; in test [2], 0.26.

For the compound `O=C1/C(=C/c2ccc(Cl)cc2)CNCC12C(c1ccc(Cl)cc1)C(Cc1c[nH]c3ccccc13)NC21c2ccccc2C2N=c3ccccc3=NC21` (stereo not given), the IC50 against Cholinesterase was 18.8 µM; against Acetylcholinesterase, 12.5 µM. The Ratio IC50 in test [1] was 1.5; in test [2], 0.67.

Regarding `COc1ccc(/C=C2\CNCC3(C2=O)C(c2ccc(OC)cc2)C(Cc2c[nH]c4ccccc24)NC32c3ccccc3C3N=c4ccccc4=NC32)cc1` (stereo not given), the IC50 stood at 23.2 µM against Cholinesterase and 7.2 µM against Acetylcholinesterase. Also, the Ratio IC50 in test [1] amounted to 3.22; in test [2] it was 0.31.

Take `O=C1/C(=C/c2ccc(Br)cc2)CNCC12C(c1ccc(Br)cc1)C(Cc1c[nH]c3ccccc13)NC21c2ccccc2C2N=c3ccccc3=NC21` (stereo not given): the IC50 on Cholinesterase is 20.6 µM; at Acetylcholinesterase it was 15.2 µM. Moreover, the values for the Ratio IC50 in test [1] and in test [2] were 1.35 and 0.74, respectively.

Regarding `Cc1cccc(/C=C2\CNCC3(C2=O)C(c2cccc(C)c2)C(Cc2c[nH]c4ccccc24)NC32c3ccccc3C3N=c4ccccc4=NC32)c1` (stereo not given), the values for the IC50 on Cholinesterase and on Acetylcholinesterase were 15.2 µM and 6.84 µM, respectively. For the same compound, the Ratio IC50 in test [1] was 2.22; in test [2], 0.45.

Broadly, the IC50 is the concentration at which inhibition is half-maximal. High values mean weaker potency, low ones greater potency.
